Measured values from patent US20220265641A1, “SEROTONERGIC AGENT AND 5-HT1A-RECEPTOR ANTAGONIST” (ATLAS PHARMACEUTICALS BV, priority 2019, published 2022).

How the values were obtained:
[1] = tested on: time to first ejaculation of male rats; assay: Time until first ejaculation in male rats, 5-HT1A-receptor antagonist in conjunction with serotonergic agent (Example 3); assay type: in vivo; conditions: antagonist in conjunction with Citalopram, Fluoxetine, Ifoxetine, Paroxetine or Zimelidine shortly before sexual activity, relative to the rat's own average without treatment
Method: In a study with male rats, 10 different 5-HT1A-receptor antagonists are administered in conjunction with five different serotonergic agents shortly before sexual activity.

male rat sexual behavior = assay: Male rat sexual behavior model (sexually trained males, 30-min access to receptive females); assay type: in vivo; conditions: for behavioral effects on sexual behavior, antagonist alone: separate experiments, not shown
Description: A model of sexual behavior in male rats was developed that is predictive of SSRI-effects on human male sexual behavior (Bijlsma et al. 2014; Olivier et al. 2006; 2017). In this male rat sexual behavior model, SSRIs inhibit sexual behavior, but only upon chronic administration thereby mimicking and modeling the SSRI effects in human males.
Male rats were sexually trained till they obtained a stable sexual performance (on average 2 ejaculations per 30-min, the standard testing duration). Animals were injected intraperitoneally 30-min before testing after which males had 30 min access to the females that were behaviorally sexually receptive. A trained researcher scored the sexual behavior of the males according to published and accepted methods (Chan et al. 2010).

5-HT1A receptor = conditions: cited from earlier work
5-HT1A-receptor = molecular target: T1, 5-HT1A-receptor (Homo sapiens, UniProt P08908); conditions: healthy human volunteers, cited from earlier work
T1 construct: host or cells: brain of healthy human volunteers (in vivo PET)
T1 sequence (P08908 1-422): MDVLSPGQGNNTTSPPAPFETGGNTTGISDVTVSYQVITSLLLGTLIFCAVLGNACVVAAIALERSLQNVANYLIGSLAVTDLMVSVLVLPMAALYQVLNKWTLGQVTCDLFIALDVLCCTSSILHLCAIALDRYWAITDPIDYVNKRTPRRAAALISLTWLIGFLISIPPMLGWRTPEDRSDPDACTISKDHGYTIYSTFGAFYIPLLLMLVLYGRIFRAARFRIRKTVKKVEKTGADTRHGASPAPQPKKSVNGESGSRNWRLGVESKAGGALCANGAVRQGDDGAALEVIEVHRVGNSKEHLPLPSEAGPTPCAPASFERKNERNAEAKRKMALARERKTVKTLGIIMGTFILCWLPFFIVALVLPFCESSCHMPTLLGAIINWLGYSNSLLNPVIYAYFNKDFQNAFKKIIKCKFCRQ

**Q.** Which “Potential average increase in time to first ejaculation (%)” value (shortened to “Potential average increase in time … (%)”) [1] does the source give for `CC(C)NCC(O)COc1cccc2[nH]ccc12` (centres unmarked) [Pindolol] here?
**A.** The value was 46%.

**Q.** Which “effect on male rat sexual behavior” value (male rat sexual behavior; WAY100,635 (0.3 mg/kg) in combination with paroxetine (5 mg/kg), own data, compared with DU125530 + paroxetine) does the source give for `COc1ccccc1N1CCN(CCN(C(=O)C2CCCCC2)c2ccccn2)CC1` [WAY100,635, reference compound] here?
**A.** The value was “comparable inhibition”.

**Q.** And the “behavioral effects on sexual behavior, antagonist alone” value (male rat sexual behavior; WAY100,635 alone at doses up to 1 mg/kg, IP)?
**A.** The value was “no behavioral effects on sexual behavior”.

**Q.** For `OC(CNCC(O)C1CCc2cc(F)ccc2O1)C1CCc2cc(F)ccc2O1` (centres unmarked) [Nebiovolol], which “Potential average increase in time … (%)” value [1] is on record?
**A.** The value was 95%.

**Q.** Which “Potential average increase in time … (%)” value [1] does the source give for `C=CCc1ccccc1OCC(O)CNC(C)C` (centres unmarked) [Alprenolol] here?
**A.** Its value is 75%.

**Q.** For `c1ccc(C(c2ccccc2)N2CCN(CCCC3(c4ccccc4)OCCO3)CC2)cc1` [Dotarizine], which “Potential average increase in time … (%)” value [1] is on record?
**A.** The value was 67%.

**Q.** Which “Potential average increase in time … (%)” value [1] does the source give for `Cc1nc2n(c(=O)c1CCN1CCC(c3noc4cc(F)ccc34)CC1)CCCC2` [Risperidone] here?
**A.** The value was 102%.

**Q.** For `CSc1ccc2c(c1)C(N1CCN(C)CC1)Cc1ccccc1S2` (centres unmarked) [Methiothepin], which “Potential average increase in time … (%)” value [1] is on record?
**A.** Its value is 97%.

**Q.** With `O=C(CCCN1CCC2(CC1)C(=O)NCN2c1ccccc1)c1ccc(F)cc1` [Spiperone] as the compound, how does the “Potential average increase in time … (%)” value [1] read?
**A.** The value was 80%.

**Q.** With `O=C1c2ccccc2S(=O)(=O)N1CCCCN1CCN(c2cc(Cl)cc3c2OCCO3)CC1` [DU125530, 2-[4-[4-(7-chloro-2,3-dihydro-1,4-benzodi-oxin-5-yl)-1-piperazinyl]butyl]-1,2-benzisothiazol-3(2H)-one-1,1-dioxide] as the compound, how does the “behavioral effects on sexual behavior, antagonist alone” value (male rat sexual behavior; DU125530 alone at doses up to 20 mg/kg) read?
**A.** Its value is “no behavioral effects on sexual behavior”.

**Q.** And the “effect on male rat sexual behavior” value (male rat sexual behavior; acute DU125530 20 mg/kg in combination with acute paroxetine 5 mg/kg, intraperitoneally 30 min before testing)?
**A.** Its value is “strongly inhibited male rat sexual behavior”.

**Q.** What about the “effects when administered alone” value (male rat sexual behavior; administered alone) of the same compound?
**A.** Its value is “no effects”.

**Q.** What about the “pharmacological activity when combined with paroxetine” value (male rat sexual behavior; combined with paroxetine) of the same compound?
**A.** The value was “pharmacologically active”.

**Q.** What about the safety (male rat sexual behavior; rat, in vivo) of the same compound?
**A.** The safety was “safe”.

**Q.** What about the “Potential average increase in time … (%)” value [1] of the same compound?
**A.** Its value is 254%.

**Q.** And the “5-HT1A receptor antagonistic activities in vitro and in vivo” value (5-HT1A receptor; Mos et al. 1997)?
**A.** Its value is “selective 5-HT1A receptor antagonistic activities”.

**Q.** And the “biological activity given on itself” value (5-HT1A receptor; given on itself, Joordens et al. 1997)?
**A.** Its value is “without biological activity”.

**Q.** And the “5-HT1A receptor antagonistic activity in several animal models” value (5-HT1A receptor; several animal models)?
**A.** The value was “nice and reliable 5-HT1A receptor antagonistic activity”.

**Q.** What about the 5-HT1A-receptor occupancy (5-HT1A-receptor; 10 to 40-mg daily dose range, 2 h post the last dose, dose-dependent) of the same compound?
**A.** The 5-HT1A-receptor occupancy was 0-72%.

**Q.** What about the side effects (5-HT1A-receptor; 10 to 40-mg daily dose range) of the same compound?
**A.** Its side effects is “minor side effects”.

**Q.** And the tolerability (5-HT1A-receptor; 10 to 40-mg daily dose range)?
**A.** Its tolerability is “well tolerated”.

**Q.** And the “correlation of occupancy with plasma levels” value (5-HT1A-receptor)?
**A.** The value was “correlated highly”.

**Q.** With `CC(C)NCC(O)COc1cccc2ccccc12` (centres unmarked) [Propranolol] as the compound, how does the “Potential average increase in time … (%)” value [1] read?
**A.** Its value is 87%.
